Results published in PMC8371461 (Frontiers in Pharmacology, 2021).
Where two headings read alike, the source gives them in different places.

Key:
[1] = target: T1, RPS6KA4(Kin.Dom.2-C-terminal) (Homo sapiens, UniProt O75676); assay: kinome scan; format: binding; details: 10 µM
T1 construct: RPS6KA4(Kin.Dom.2-C-terminal); purchased DiscoverX (KINOMEscan)

INSRR = target: T2, INSRR (Homo sapiens, UniProt P14616); assay: kinome scan; format: binding; details: 10 µM
T2 construct: purchased DiscoverX (KINOMEscan)

CAMK1 = target: T3, CAMK1 (Homo sapiens, UniProt Q14012); assay: kinome scan; format: binding; details: 10 µM
T3 construct: purchased DiscoverX (KINOMEscan)

PAK1 = target: T4, PAK1 (Homo sapiens, UniProt Q13153); assay: kinome scan; format: binding; details: 10 µM
T4 construct: purchased DiscoverX (KINOMEscan)

PIK3CA = target: T5, PIK3CA (Homo sapiens, UniProt P42336); assay: kinome scan; format: binding; details: 10 µM
T5 construct: purchased DiscoverX (KINOMEscan)

EPHA6 = target: T6, EPHA6 (Homo sapiens, UniProt Q9UF33); assay: kinome scan; format: binding; details: 10 µM
T6 construct: purchased DiscoverX (KINOMEscan)

MARK4 = target: T7, MARK4 (Homo sapiens, UniProt Q96L34); assay: kinome scan; format: binding; details: 10 µM
T7 construct: purchased DiscoverX (KINOMEscan)

MKNK2 = target: T8, MKNK2 (Homo sapiens, UniProt Q9HBH9); assay: kinome scan; format: binding
T8 construct: purchased DiscoverX (KINOMEscan)
T8 sequence (Q9HBH9 whole entry): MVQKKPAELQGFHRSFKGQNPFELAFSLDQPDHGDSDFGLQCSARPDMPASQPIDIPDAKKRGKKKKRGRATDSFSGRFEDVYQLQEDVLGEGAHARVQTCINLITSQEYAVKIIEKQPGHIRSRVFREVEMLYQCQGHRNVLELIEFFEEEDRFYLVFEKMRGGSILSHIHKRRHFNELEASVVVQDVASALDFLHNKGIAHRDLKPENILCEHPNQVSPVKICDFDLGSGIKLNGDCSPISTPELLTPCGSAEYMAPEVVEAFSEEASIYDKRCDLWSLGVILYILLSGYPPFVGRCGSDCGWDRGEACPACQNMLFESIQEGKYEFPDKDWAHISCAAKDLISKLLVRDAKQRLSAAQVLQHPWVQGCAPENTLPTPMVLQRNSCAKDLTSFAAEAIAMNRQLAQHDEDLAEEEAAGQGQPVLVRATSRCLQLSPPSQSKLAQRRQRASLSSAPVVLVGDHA

KIT(D816H) = target: T9, KIT(D816H) (Homo sapiens, UniProt P10721, D816H); assay: kinome scan; format: binding; details: 10 µM
T9 construct: purchased DiscoverX (KINOMEscan)

HPK1 = target: T10, HPK1 (Homo sapiens, UniProt Q92918); assay: kinome scan; format: binding; details: 10 µM
T10 construct: purchased DiscoverX (KINOMEscan)
T10 sequence (Q92918 whole entry): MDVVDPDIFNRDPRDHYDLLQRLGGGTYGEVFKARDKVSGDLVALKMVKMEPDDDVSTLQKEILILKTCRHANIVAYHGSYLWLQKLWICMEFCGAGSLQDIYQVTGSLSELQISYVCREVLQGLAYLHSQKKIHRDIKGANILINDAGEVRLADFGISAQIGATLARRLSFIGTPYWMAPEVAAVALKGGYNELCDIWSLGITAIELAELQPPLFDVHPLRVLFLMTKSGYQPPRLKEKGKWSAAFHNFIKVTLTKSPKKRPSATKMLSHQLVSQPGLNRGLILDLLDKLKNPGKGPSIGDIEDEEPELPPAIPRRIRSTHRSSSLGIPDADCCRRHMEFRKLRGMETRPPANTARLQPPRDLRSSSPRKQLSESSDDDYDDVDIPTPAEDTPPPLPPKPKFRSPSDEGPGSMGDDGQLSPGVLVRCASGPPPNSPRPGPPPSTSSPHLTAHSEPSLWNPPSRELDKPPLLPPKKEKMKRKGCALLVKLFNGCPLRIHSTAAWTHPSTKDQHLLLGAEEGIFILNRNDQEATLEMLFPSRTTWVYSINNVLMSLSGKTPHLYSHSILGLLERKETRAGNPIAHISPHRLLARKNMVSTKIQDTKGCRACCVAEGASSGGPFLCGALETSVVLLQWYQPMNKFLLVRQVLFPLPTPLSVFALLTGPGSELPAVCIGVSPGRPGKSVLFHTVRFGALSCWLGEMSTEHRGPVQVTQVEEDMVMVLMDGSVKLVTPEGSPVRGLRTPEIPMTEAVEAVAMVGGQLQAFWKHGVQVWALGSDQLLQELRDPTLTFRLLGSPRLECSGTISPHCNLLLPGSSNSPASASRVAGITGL

TAK1 = target: T11, TAK1 (Homo sapiens, UniProt O43318); assay: kinome scan; format: binding; details: 10 µM
T11 construct: purchased DiscoverX (KINOMEscan)
T11 sequence (O43318 whole entry): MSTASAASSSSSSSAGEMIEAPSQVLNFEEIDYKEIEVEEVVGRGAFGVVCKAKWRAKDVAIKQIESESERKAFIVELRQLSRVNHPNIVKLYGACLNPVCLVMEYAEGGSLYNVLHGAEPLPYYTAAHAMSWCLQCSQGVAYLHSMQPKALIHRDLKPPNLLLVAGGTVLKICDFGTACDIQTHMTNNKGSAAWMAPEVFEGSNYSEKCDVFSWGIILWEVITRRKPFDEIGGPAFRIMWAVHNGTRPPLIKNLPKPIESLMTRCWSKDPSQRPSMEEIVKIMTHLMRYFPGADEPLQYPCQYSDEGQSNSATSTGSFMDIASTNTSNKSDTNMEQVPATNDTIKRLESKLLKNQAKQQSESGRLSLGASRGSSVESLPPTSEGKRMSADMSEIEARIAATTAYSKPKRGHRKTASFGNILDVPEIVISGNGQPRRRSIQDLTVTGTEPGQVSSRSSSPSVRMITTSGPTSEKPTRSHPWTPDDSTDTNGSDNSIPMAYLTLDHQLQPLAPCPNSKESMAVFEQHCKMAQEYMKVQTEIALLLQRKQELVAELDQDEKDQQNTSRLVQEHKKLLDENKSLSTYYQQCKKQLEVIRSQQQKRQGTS

CDKL1 = target: T12, CDKL1 (Homo sapiens, UniProt Q00532); assay: kinome scan; format: binding; details: 10 µM
T12 construct: purchased DiscoverX (KINOMEscan)

[2] = system: CGR8EF1αS,RLuc-Tα1,FLuc cells; assay: cell viability by propidium iodide; format: cell-based, mouse; details: up to 10 µM, 72 h
Description: The CGR8 mouse PSC were cultured as described ([Suter et al., 2009]). For neural induction, CGR8 cells were plated in 96-well plates at a density of 10,000 cells/cm^2 on gelatine-coated cell culture plates, in differentiation medium [BHK-21 medium supplemented with 20% foetal calf serum (Thermofisher), L-glutamine 2 mM (Thermofisher), non-essential amino acids (1X, Thermofisher), sodium pyruvate 1 mM (Thermofisher), penicillin/streptomycin 50 U/ml (Thermofisher)]. CGR8EF1αS,RLuc-Tα1,FLuc cells were described in ([Suter et al., 2009]) and were cultured as described above. Luminescence assays were directly performed in 96-well plates with the Dual Luciferase Reporter Assay System (Promega) according to the manufacturer’s instructions. Luminescence was measured with the SpectraMax L Microplate luminometer (Molecular Devices). Cell viability in the wells was measured by the addition of propidium iodide 1 µg/ml in 100 µL of PBS and fluorescence was assessed in each well using a FluoStar Optima reader (Pharmaceutical Technology Group at the University of Geneva).
After two days, cells were lysed for the quantification of intracellular ATP. […] After three days, cells were lysed for the quantification of F-luminescence (FLuc) and R-luminescence (RLuc) in the presence of the respective substrates.

[3] = target: T13, ABL1(H396P)-nonphosphorylated (Homo sapiens, UniProt P00519, H396P); assay: kinome scan; format: binding; details: 10 µM
T13 construct: purchased DiscoverX (KINOMEscan)

ANKK1 = target: T14, ANKK1 (Homo sapiens, UniProt Q8NFD2); assay: kinome scan; format: binding
T14 construct: purchased DiscoverX (KINOMEscan)
T14 sequence (Q8NFD2 1-765): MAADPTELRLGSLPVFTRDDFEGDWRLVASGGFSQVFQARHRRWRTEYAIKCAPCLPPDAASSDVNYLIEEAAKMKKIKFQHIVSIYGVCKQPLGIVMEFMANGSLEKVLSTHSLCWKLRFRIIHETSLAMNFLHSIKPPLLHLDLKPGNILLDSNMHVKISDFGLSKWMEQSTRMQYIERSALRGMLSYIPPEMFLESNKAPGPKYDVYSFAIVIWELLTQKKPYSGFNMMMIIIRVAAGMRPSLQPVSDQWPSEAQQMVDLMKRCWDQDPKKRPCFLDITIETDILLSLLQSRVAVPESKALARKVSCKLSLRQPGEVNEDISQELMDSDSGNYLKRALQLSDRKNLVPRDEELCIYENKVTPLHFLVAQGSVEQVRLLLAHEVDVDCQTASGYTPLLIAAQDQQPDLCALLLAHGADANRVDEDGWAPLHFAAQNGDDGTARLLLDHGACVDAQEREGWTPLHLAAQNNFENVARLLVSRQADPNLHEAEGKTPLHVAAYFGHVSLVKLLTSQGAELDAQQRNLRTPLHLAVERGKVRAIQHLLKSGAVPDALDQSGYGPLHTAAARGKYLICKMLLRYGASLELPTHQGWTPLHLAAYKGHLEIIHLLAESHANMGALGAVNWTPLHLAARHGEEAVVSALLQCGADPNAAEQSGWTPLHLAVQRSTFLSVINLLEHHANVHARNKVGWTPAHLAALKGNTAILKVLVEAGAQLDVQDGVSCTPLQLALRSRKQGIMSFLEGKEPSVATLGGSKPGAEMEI

FLT4 = target: T15, FLT4 (Homo sapiens, UniProt P35916); assay: kinome scan; format: binding; details: 10 µM
T15 construct: purchased DiscoverX (KINOMEscan)

CDKL5 = target: T16, CDKL5 (Homo sapiens, UniProt O76039); assay: kinome scan; format: binding; details: 10 µM
T16 construct: purchased DiscoverX (KINOMEscan)

IKK-beta = target: T17, IKK-beta (Homo sapiens, UniProt O14920); assay: kinome scan; format: binding; details: 10 µM
T17 construct: purchased DiscoverX (KINOMEscan)
T17 sequence (O14920 whole entry): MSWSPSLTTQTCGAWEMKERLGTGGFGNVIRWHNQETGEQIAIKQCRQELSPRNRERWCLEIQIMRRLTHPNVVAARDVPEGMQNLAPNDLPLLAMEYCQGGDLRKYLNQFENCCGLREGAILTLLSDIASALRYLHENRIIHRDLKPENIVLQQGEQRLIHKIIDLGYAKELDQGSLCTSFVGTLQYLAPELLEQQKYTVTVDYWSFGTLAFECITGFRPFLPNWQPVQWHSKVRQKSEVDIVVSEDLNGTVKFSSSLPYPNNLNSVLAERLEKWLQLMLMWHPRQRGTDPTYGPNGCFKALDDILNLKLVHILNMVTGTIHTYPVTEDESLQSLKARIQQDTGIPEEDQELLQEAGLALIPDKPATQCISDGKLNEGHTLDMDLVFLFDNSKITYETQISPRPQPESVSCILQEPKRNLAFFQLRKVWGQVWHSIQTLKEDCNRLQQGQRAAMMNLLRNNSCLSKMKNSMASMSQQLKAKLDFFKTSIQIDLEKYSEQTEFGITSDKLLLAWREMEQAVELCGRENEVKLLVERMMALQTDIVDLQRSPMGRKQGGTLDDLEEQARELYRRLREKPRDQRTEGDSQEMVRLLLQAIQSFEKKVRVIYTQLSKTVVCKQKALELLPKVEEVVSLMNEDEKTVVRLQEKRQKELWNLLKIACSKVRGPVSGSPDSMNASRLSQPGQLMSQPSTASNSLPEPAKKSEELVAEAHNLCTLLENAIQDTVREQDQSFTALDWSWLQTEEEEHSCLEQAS

FER = target: T18, FER (Homo sapiens, UniProt P16591); assay: kinome scan; format: binding; details: 10 µM
T18 construct: purchased DiscoverX (KINOMEscan)

TIE2 = target: T19, TIE2 (Homo sapiens, UniProt Q02763); assay: kinome scan; format: binding; details: 10 µM
T19 construct: purchased DiscoverX (KINOMEscan)
T19 sequence (Q02763 23-1124): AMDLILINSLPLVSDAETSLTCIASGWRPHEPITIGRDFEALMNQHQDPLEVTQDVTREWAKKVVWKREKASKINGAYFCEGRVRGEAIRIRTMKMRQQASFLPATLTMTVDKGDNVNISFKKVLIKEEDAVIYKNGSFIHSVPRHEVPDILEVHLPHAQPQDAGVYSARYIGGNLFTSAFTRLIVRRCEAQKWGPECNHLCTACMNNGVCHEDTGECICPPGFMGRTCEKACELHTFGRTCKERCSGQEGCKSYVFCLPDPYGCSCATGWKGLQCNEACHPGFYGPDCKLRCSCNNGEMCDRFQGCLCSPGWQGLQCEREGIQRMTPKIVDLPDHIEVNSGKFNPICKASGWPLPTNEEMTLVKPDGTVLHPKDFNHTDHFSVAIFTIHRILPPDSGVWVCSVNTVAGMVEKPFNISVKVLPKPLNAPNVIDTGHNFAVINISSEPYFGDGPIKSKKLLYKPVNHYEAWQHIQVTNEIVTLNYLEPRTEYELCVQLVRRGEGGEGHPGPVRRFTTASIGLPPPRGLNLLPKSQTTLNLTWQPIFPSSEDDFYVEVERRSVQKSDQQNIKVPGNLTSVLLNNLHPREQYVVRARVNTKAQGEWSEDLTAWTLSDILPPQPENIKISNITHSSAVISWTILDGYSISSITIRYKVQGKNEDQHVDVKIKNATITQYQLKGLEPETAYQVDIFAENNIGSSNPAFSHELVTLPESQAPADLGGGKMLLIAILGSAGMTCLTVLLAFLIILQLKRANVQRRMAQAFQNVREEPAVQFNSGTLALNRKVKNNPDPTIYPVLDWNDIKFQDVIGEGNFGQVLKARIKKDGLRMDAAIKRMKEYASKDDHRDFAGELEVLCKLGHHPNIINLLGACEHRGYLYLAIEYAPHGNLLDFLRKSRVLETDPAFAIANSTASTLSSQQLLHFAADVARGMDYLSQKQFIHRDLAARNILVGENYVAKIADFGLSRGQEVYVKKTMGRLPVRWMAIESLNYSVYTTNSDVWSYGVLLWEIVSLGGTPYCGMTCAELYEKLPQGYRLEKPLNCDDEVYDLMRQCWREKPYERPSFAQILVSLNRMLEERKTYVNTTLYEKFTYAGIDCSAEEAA

CAMK1D = target: T20, CAMK1D (Homo sapiens, UniProt Q8IU85); assay: kinome scan; format: binding; details: 10 µM
T20 construct: purchased DiscoverX (KINOMEscan)

ERK5 = target: T21, ERK5 (Homo sapiens, UniProt Q13164); assay: kinome scan; format: binding; details: 10 µM
T21 construct: purchased DiscoverX (KINOMEscan)
T21 sequence (Q13164 whole entry): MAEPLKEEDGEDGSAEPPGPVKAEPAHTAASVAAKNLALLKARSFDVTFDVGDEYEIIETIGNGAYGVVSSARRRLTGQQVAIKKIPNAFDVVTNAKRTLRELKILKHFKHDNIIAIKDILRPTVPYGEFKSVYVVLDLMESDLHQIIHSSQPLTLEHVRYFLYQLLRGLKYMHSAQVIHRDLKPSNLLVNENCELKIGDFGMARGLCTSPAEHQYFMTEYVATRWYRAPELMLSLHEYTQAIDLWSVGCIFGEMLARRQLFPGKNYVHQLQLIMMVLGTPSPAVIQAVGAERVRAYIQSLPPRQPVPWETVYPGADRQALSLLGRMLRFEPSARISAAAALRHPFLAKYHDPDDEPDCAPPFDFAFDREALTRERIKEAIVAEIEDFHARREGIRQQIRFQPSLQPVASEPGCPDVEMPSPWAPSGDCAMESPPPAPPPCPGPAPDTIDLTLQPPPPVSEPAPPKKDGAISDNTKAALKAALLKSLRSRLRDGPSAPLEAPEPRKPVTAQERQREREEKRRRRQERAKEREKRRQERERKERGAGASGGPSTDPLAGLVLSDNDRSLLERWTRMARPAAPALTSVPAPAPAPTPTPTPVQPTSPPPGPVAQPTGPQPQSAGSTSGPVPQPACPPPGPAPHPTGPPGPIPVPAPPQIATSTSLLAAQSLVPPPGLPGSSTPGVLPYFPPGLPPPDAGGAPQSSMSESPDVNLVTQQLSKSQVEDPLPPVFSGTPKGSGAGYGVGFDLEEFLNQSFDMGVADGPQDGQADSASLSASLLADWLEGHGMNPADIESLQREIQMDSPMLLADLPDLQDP

PIM1 = target: T22, PIM1 (Homo sapiens, UniProt P11309); assay: kinome scan; format: binding
T22 construct: purchased DiscoverX (KINOMEscan)
T22 sequence (P11309 whole entry): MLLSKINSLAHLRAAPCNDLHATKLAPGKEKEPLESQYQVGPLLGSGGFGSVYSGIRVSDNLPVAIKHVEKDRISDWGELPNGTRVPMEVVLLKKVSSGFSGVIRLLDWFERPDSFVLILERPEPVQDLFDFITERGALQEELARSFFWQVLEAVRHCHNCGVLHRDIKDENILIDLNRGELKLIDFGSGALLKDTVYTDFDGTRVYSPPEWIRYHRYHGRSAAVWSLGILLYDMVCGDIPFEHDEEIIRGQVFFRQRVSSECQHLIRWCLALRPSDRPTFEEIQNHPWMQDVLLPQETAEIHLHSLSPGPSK

RIPK4 = target: T23, RIPK4 (Homo sapiens, UniProt P57078); assay: kinome scan; format: binding; details: 10 µM
T23 construct: purchased DiscoverX (KINOMEscan)

Compound Nc1ccc(N=Nc2ccccc2)c(N)n1 [phenazopyridine, 2,6-diamino-3-(phenylazo)pyridine] has a kinase inhibition [1] of 90, a kinase inhibition (INSRR) of 100 and a kinase inhibition (CAMK1) of 100. The kinase inhibition (PAK1) was 100, the kinase inhibition (PIK3CA) was 84 and the kinase inhibition (EPHA6) was 91. The kinase inhibition (MARK4) was 84, the remaining binding at 10 µM (MKNK2; MKNK2, read-out: % Of control) was 6.6% and the “remaining binding (% of control)” value (MKNK2; MKNK2, 10 µM) was 6.6. The remaining binding at 10 µM (MKNK2; MNK2, read-out: Kinome scan (% of control at 10 µM)) was 6.6%, the kinase inhibition (KIT(D816H)) was 85 and the kinase inhibition (HPK1) was 67. For the same compound, the kinase inhibition (TAK1) was 80, the kinase inhibition (CDKL1) was 100 and the “toxicity (signal in the presence of propidium iodide)” value [2] was “without any toxicity”. For the same compound, the kinase inhibition [3] was 48, the “remaining binding (% of control)” value (ANKK1; 10 µM) was 18 and the remaining binding at 10 µM (ANKK1; read-out: % Of control) was 18%. It also gave a kinase inhibition (FLT4) of 100, a kinase inhibition (CDKL5) of 100 and a kinase inhibition (IKK-beta) of 89. For the same compound, the kinase inhibition (FER) was 100, the kinase inhibition (TIE2) was 98 and the kinase inhibition (CAMK1D) was 100. For the same compound, the kinase inhibition (ERK5) was 95, the “remaining binding (% of control)” value (PIM1; 10 µM) was 100 and the remaining binding at 10 µM (PIM1; read-out: Kinome scan (% of control at 10 µM)) was 100%. For the same compound, the kinase inhibition (RIPK4) was 100.
